Experimental data as given in BindingDB's records for doi:10.7270/Q2HT2MQ5 (Nmmlsc, 2009).

Biological target: Cell division control protein 42 homolog (Homo sapiens, UniProt P60953)
Assay: blockade of fluorescent GTP uptake by Cdc42 wt – biochemical, bead-based multiplex flow cytometry, oxadiazole series, SAR follow-up (AID 2037)
Conditions: inactive by the depositor's call

Sequence of Cell division control protein 42 homolog (P60953 whole entry): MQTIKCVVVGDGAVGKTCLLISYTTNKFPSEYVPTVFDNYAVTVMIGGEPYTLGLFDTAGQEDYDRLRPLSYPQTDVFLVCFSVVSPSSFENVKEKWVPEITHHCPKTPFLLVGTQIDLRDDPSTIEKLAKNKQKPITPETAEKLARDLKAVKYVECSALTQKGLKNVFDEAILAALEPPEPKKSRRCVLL

Ki: 0.1 µM
Compound: COc1ccc(-c2noc(CCC(=O)N3CCN(c4ccc(OC)cc4)CC3)n2)cc1 [3-[3-(4-methoxyphenyl)-1,2,4-oxadiazol-5-yl]-1-[4-(4-methoxyphenyl)piperazin-1-yl]propan-1-one]
